Experiments:
EGFR = target: T1, EGFR (Homo sapiens, UniProt P00533); assay: Biochemical EGFR Assay; parameters: concentration or dose not given beside the values
T1 construct: endogenous in cells; host or cells: A431 cells (lysate, captured with SUMO1 anti-EGFR antibody)
Experimental: This assay measures the in vitro kinase activity of EGFR using ELISA.
1. Corning 96-well Elisa plates (Corning Catalog No. 25805-96).
2. SUMO1 monoclonal anti-EGFR antibody (Biochemistry Lab, SUGEN, Inc.).
3. PBS (Dulbecco's Phosphate-Buffered Saline, Gibco Catalog No. 450-1300EB).
6. A431 cell lysate (Screening Lab, SUGEN, Inc.)
9. Adenosine-5′-triphosphate (ATP, from Equine muscle, Sigma Cat. No. A-5394).
Prepare a 1.0 mM solution in dH2O. This reagent should be made up immediately prior to use and kept on ice.
Prepare a 1.0 M stock solution in dH2O.
11. ATP/MnCl2 phosphorylation mix
This reagent should be prepared immediately before use and kept on ice
12. NUNC 96-well V bottom polypropylene plates (Applied Scientific Cat. No. AS-72092).
13. Ethylenediaminetetraacetic acid (EDTA)
Prepare 200 mM working solution in dH2O. Adjust to pH 8.0 with 10 N NaOH.
14. Rabbit polyclonal anti-phosphotyrosine serum (Biochemistry Lab, SUGEN, Inc.)
15. Goat anti-rabbit IgG peroxidase conjugate (Biosource Cat. No. ALI0404)
16. ABTS (2,2′-azino-bis(3-ethylbenzthiazoline-6-sulfonic acid), Sigma Cat. No. A-1888).
Mix first two ingredients in about 900 ml dH2O, adjust pH to 4.0 with phosphoric acid. Add ABTS, cover, let sit about 0.5 hr., filter. The solution should be kept in the dark at 4° C. until ready to use.
17. Hydrogen peroxide 30% solution (Fisher Cat. No. H325)
Mix 15 ml ABTS solution and 2.0 μl H2O2. Prepare 5 minutes before use.
1. Coat Corning 96 well ELISA plates with 0.5 μg SUMO1 in 100 μl PBS per well, store overnight at 4° C.
2. Remove unbound SUMO1 from wells by inverting plate to remove liquid. Wash 1× with dH2O. Pat the plate on a paper towel to remove excess liquid.
3. Add 150 μl of Blocking Buffer to each well. Incubate for 30 min. at room temperature with shaking.
4. Wash plate 3× with deionized water, then once with TBST. Pat plate on a paper towel to remove excess liquid and bubbles.
5. Dilute lysate in PBS (7 μg lysate/100 μl PBS)
6. Add 100 μl of diluted lysate to each well. Shake at room temperature for 60 min.
7. Wash plates as described in 4, above.
8. Add 120 μl TBS to ELISA plate containing captured EGFR.
9. Dilute test compound 1:10 in TBS in 96-well polypropylene plates (ie. 10 μl compound+90 μl TBS).
10. Add 13.5 μl diluted test compound to ELISA plate.
11. Incubate for 30 minutes while shaking at room temperature.
13. After 5 minutes, stop reaction by adding 16.5 μl of 200 mM EDTA (pH 8.0) to each well, shaking continuously. After the EDTA has been added, shake for 1 min.
14. Wash 4× with deionized water, twice with TBST.
15. Add 100 μl anti-phosphotyrosine (1:3000 dilution in TBST) per well. Incubate 30-45 min. at room temperature, with shaking.
16. Wash as described in 4, above.
17. Add 100 μl Biosource Goat anti-rabbit IgG peroxidase conjugate (1:2000 dilution in TBST) to each well. Incubate 30 min. at room temperature, with shaking.
18. Wash as described in 4, above.
19. Add 100 μl of ABTS/H2O2 solution to each well.
20. Incubate 5 to 10 minutes with shaking. Remove any bubbles.
21. If necessary stop reaction with the addition of 100 μl 0.2 M HCl per well.
22. Read assay on Dynatech MR7000 ELISA reader. Test Filter: 410 nM Reference Filter: 630 nM

PDGF-R = PDGF-R Assay (cellular ELISA, U1242 cells); type: cell-based; parameters: concentration or dose not given beside the values
Method in brief: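 U1242 cells seeded in 0.5% serum, serum-starved, then exposed to compound for 2 hr at 37°C before 5–10 min ligand stimulation and lysis in HNTG. Lysate captured on receptor-antibody-coated plates; phosphotyrosine detected with polyclonal anti-pTyr, goat anti-rabbit IgG and ABTS/H2O2, A410 (ref 630 nm), versus untreated cells.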

T1 sequence (P00533 25-1210): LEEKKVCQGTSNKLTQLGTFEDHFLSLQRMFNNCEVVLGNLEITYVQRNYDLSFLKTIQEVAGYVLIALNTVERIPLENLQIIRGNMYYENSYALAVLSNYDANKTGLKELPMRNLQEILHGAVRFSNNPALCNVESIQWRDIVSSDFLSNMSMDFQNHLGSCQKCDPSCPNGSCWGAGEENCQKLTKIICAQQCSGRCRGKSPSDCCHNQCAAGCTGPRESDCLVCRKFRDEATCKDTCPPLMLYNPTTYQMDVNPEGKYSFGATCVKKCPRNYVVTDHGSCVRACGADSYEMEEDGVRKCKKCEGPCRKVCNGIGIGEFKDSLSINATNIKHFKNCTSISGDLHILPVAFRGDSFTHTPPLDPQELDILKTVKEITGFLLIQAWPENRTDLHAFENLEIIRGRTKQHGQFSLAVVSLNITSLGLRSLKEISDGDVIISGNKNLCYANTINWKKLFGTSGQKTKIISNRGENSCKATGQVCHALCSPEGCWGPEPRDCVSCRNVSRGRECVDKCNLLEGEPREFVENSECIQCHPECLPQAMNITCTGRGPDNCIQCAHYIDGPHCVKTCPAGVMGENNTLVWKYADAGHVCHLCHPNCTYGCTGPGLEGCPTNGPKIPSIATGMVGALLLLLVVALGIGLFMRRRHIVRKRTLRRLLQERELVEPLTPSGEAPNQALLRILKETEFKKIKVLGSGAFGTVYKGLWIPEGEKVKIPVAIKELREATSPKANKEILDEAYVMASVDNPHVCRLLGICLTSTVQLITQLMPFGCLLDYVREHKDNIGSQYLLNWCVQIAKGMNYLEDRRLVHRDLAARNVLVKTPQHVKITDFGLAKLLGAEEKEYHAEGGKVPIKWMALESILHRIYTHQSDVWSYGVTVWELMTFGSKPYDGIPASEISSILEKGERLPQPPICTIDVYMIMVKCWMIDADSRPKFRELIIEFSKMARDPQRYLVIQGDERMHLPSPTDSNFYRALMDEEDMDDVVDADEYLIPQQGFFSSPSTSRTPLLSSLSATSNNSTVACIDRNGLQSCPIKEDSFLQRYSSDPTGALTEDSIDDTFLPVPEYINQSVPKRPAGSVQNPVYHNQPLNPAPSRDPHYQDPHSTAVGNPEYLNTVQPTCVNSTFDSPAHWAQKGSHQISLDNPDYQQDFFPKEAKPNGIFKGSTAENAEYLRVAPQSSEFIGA

Row | Structure (SMILES) | Biochem EGFR % Inhibition (P.167) (EGFR) [%] | PDGF Kinase % Inhibition (P.119) (PDGF-R) [%]
1 | CCOC(=O)c1c(C)[nH]c(C=C2C(=O)Nc3c(Br)cc(Br)c(C)c32)c1C [10718/H02] | −22.5 | 
2 | COc1cc(Br)c(O)c(C=C2C(=O)Nc3c(Br)cc(Br)c(C)c32)c1 [10718/H03] | 33.2 | 
3 | Cc1c(Br)cc(Br)c2c1C(=Cc1ccc3ccccc3c1O)C(=O)N2 [10718/H04] | 13.7 | 
4 | CCOC(=O)CCc1c(C(=O)OCC)[nH]c(C=C2C(=O)Nc3c(Br)cc(Br)c(C)c32)c1CC(=O)OCC [10718/H05] | 0.2 | 
5 | CCOC(=O)c1cc(C=C2C(=O)Nc3c(Br)cc(Br)c(C)c32)oc1C [10718/H06] | −5.1 | 
6 | COC(=O)c1[nH]c(C)c(C=C2C(=O)Nc3c(Br)cc(Br)c(C)c32)c1C(=O)OC [10718/H07] | −12.0 | 
7 | Cc1c(Br)cc(Br)c2c1C(=Cc1ccc(Cl)c([N+](=O)[O-])c1)C(=O)N2 [10718/H08] | −2.5 | 
8 | CCOc1cccc(C=C2C(=O)Nc3c(Br)cc(Br)cc32)c1O [10734/A02] | 0.0 | −3.8
9 | O=C1Nc2c(Br)cc(Br)cc2C1=Cc1cc(Cl)cc(Cl)c1O [10734/A03] | 18.5 | 22.3
10 | O=C1Nc2c(Br)cc(Br)cc2C1=Cc1cc(Cl)ccc1O [10734/A04] | 11.4 | 11.7
11 | CCN(CC)c1ccc(C=C2C(=O)Nc3c(Br)cc(Br)cc32)c(O)c1 [10734/A05] | 22.6 | 2.9
12 | O=C1Nc2c(Br)cc(Br)cc2C1=Cc1ccc([N+](=O)[O-])cc1 [10734/A06] | −6.4 | −9.9
13 | O=C1Nc2c(Br)cc(Br)cc2C1=Cc1cc(Br)cc(Br)c1O [10734/A07] | 15.2 | 21.9
14 | O=C1Nc2c(Br)cc(Br)cc2C1=Cc1cccc(F)c1O [10734/A08] | 6.8 | 9.1
15 | O=C1Nc2c(Br)cc(Br)cc2C1=Cc1ccc(O)c(Br)c1 [10734/A09] | 27.3 | −9.5
16 | CC(C)(C)c1ccc(C=C2C(=O)Nc3c(Br)cc(Br)cc32)cc1 [10734/A10] | 27.8 | 26.3
17 | O=C1Nc2c(Br)cc(Br)cc2C1=Cc1ccc(Br)s1 [10734/A11] | 12.5 | 5.5
18 | CCOc1cccc(C=C2C(=O)Nc3ccc(I)cc32)c1O [10734/B02] | −8.9 | −2.9
19 | O=C1Nc2ccc(I)cc2C1=Cc1cc(Cl)cc(Cl)c1O [10734/B03] | 45.1 | 13.0
20 | O=C1Nc2ccc(I)cc2C1=Cc1cc(Cl)ccc1O [10734/B04] | 38.7 | 14.4

Row | Structure (SMILES) | Biochem EGFR % Inhibition (P.167) (EGFR) [%] | PDGF Kinase % Inhibition (P.119) (PDGF-R) [%]
21 | CCN(CC)c1ccc(C=C2C(=O)Nc3ccc(I)cc32)c(O)c1 [10734/B05] | 17.8 | 56.3
22 | O=C1Nc2ccc(I)cc2C1=Cc1ccc([N+](=O)[O-])cc1 [10734/B06] | 54.0 | 0.2
23 | O=C1Nc2ccc(I)cc2C1=Cc1cc(Br)cc(Br)c1O [10734/B07] | 65.5 | 18.8
24 | O=C1Nc2ccc(I)cc2C1=Cc1cccc(F)c1O [10734/B08] | 19.3 | −2.4
25 | O=C1Nc2ccc(I)cc2C1=Cc1ccc(O)c(Br)c1 [10734/B09] | 34.9 | 12.6
26 | CC(C)(C)c1ccc(C=C2C(=O)Nc3ccc(I)cc32)cc1 [10734/B10] | 60.7 | 7.7
27 | O=C1Nc2ccc(I)cc2C1=Cc1ccc(Br)s1 [10734/B11] | 50.9 | −5.5
28 | CCOc1cccc(C=C2C(=O)Nc3ccc(Br)c(C)c32)c1O [10734/C02] | −6.7 | 36.0
29 | Cc1c(Br)ccc2c1C(=Cc1cc(Cl)cc(Cl)c1O)C(=O)N2 [10734/C03] | 48.6 | 24.5
30 | Cc1c(Br)ccc2c1C(=Cc1cc(Cl)ccc1O)C(=O)N2 [10734/C04] | 38.1 | 24.5
31 | CCN(CC)c1ccc(C=C2C(=O)Nc3ccc(Br)c(C)c32)c(O)c1 [10734/C05] | 9.3 | 3.8
32 | Cc1c(Br)ccc2c1C(=Cc1ccc([N+](=O)[O-])cc1)C(=O)N2 [10734/C06] | 18.4 | −0.2
33 | Cc1c(Br)ccc2c1C(=Cc1cc(Br)cc(Br)c1O)C(=O)N2 [10734/C07] | 41.0 | 32.0
34 | Cc1c(Br)ccc2c1C(=Cc1cccc(F)c1O)C(=O)N2 [10734/C08] | 35.1 | 5.5
35 | Cc1c(Br)ccc2c1C(=Cc1ccc(O)c(Br)c1)C(=O)N2 [10734/C09] | 36.2 | 11.3
36 | Cc1c(Br)ccc2c1C(=Cc1ccc(C(C)(C)C)cc1)C(=O)N2 [10734/C10] | 24.4 | 17.4
37 | Cc1c(Br)ccc2c1C(=Cc1ccc(Br)s1)C(=O)N2 [10734/C11] | 18.0 | 9.1
38 | CCOc1cccc(C=C2C(=O)Nc3ccc(S(=O)(=O)NC)cc32)c1O [10734/D02] | 5.2 | 6.4
39 | CNS(=O)(=O)c1ccc2c(c1)C(=Cc1cc(Cl)cc(Cl)c1O)C(=O)N2 [10734/D03] | 19.6 | 24.1
40 | CNS(=O)(=O)c1ccc2c(c1)C(=Cc1cc(Cl)ccc1O)C(=O)N2 [10734/D04] | −10.7 | 13.5
